US11827917B1, “Methods for the conversion of fermentable sugars to ethanol” (Colorado State University Research Foundation, priority 2020, dated 2023)
Marks after values point to notes of the source that are not given here.

Assays:
Assay type in all cases: cell-based, Saccharomyces cerevisiae
S. cerevisiae JAY 270 = assay: Serum-bottle cultivation in YPD: biomass, glycerol, ethanol yields
Protocol: Procedure: Cultivations in serum bottles were used to determine the effect of the best-performing screened chemicals on the ethanol yield. S. cerevisiae JAY 270 was pre-cultured in 100 mL of YPD medium in 200-mL serum bottles overnight in a shaker at 30° C. and 200 rpm. The precultured yeast cells were collected and washed twice as described above. The cell pellet was resuspended in about 10 mL of 0.8% (w/v) NaCl and the cell concentration was estimated as OD600. TyrOH, PheOH, and TrpOH were added to 30 mL of YPD medium in 100-mL serum bottles at 0.05% and 0.2% respectively. The same amount of DMSO was added to YPD medium to serve as the control for TrpOH and TyrOH treatments. The bottles were inoculated with the prepared yeast cells to obtain an initial cell concentration of OD600=0.2. The serum bottles were sealed and cultured in a shaker at 30° C. and 200 rpm for 24 h. Each condition had three biological replicates.
(§1) Analytical methods: Cell growth was evaluated by monitoring OD600 and cell dry mass concentration. For dry mass measurements, 1.0 mL of culture was transferred to a pre-dried and pre-weighed 2-mL centrifuge tube. The tubes were centrifuged for 10 min at 14000 rpm using a microcentrifuge, and then the cell pellets were dried in an oven for 3 days at 65° C. The cell dry mass was determined by subtracting the initial tube mass from the dried mass of tube with cells. The concentrations of glucose, ethanol, and glycerol were measured via HPLC (Shimadzu LC20A series) outfitted with a refractive index detector and using an Aminex HPX-87H (300×7.8 mm) organic acid column and Cation H+ guard cartridge (Bio Rad Laboratories, Hercules, CA). The column was maintained at 65° C. and the mobile phase was 5 mM sulfuric acid with a flow rate of 0.6 mL/min. Standard compound solutions were used to calibrate the HPLC. Each sample was analyzed three times by HPLC.

S. cerevisiae JAY 241 = assay: Serum-bottle cultivation in YPD, different yeast strains; details: 0.2%
Protocol: as §1
(§2) Procedure: Seven yeast strains (S. cerevisiae ATCC 26603, S. cerevisiae JAY 238, S. cerevisiae JAY 240, S. cerevisiae JAY 241, S. paradoxus JAY 1502, S. kudriavzezii JAY 1503, and S. mikatae JAY 1504) were pre-cultured in 30 mL of YPD medium in 100 mL serum bottle overnight in a shaker at 30° C. and 200 rpm. The precultured yeast cells of each strains were collected and washed twice. Finally, the cell pellet was resuspended in about 10 mL 0.8% (w/v) NaCl and the OD600 measured. TyrOH, PheOH, and TrpOH were added to 30 mL of YPD medium in 100-mL serum bottles at 0.2% (w/v) respectively. The same amount of DMSO was added in YPD medium and served as control to the TrpOH and TyrOH treatments. The prepared yeast cells were added to obtain the initial cell concentration at OD600=0.2. The serum bottles were sealed and cultured in a shaker at 30° C. and 200 rpm for 24 h. There were three biological replicates for each treatment.

S. cerevisiae JAY 240 = assay: as above; details: 0.2%
Protocol: as §1, §2

S. cerevisiae ATCC 26603 = assay: as above; details: 0.2%
Protocol: as §1, §2

S. cerevisiae JAY 238 = assay: as above; details: 0.2%
Protocol: as §1, §2

[1] = 0.05% (w/v), YPD, serum bottles
[2] = S. cerevisiae JAY 241, YPD (Table 9B)
[3] = S. cerevisiae JAY 240, YPD (Table 9B)
[4] = S. cerevisiae ATCC 26603, YPD (Table 9B)
[5] = S. cerevisiae JAY 238, YPD (Table 9B)

In the case of `OCCc1ccc(O)cc1` [TyrOH, Tyrosol], the Biomass Yield (S. cerevisiae JAY 270; [1]) was 0.095 + 0.001 g/g, the “Biomass yield % change vs. control” value (S. cerevisiae JAY 270; [1]) was −5% and the EtOH yield (S. cerevisiae JAY 270; [1]) was 0.38 ± 0.01 g/g. The “EtOH yield % change vs. control” value (S. cerevisiae JAY 270; [1]) was 0.8%, the Glycerol yield (S. cerevisiae JAY 270; [1]) was 0.031 ± 0.001 g/g and the “Glycerol yield % change vs. control” value (S. cerevisiae JAY 270; [1]) was −9%. For the same compound, the “Biomass yield vs. reference” value (S. cerevisiae JAY 270; 0.05%, YPD, serum bottles) was −5.0%, the Ethanol yield (S. cerevisiae JAY 270; 0.05%, YPD, serum bottles) was 0.38 ± 0.01 g/g and the “Ethanol yield vs. reference” value (S. cerevisiae JAY 270; 0.05%, YPD, serum bottles) was 0.8%. For the same compound, the Glycerol yield (S. cerevisiae JAY 270; 0.05%, YPD, serum bottles) was 0.031 ± 0.001 g/g, the “Glycerol yield vs. reference” value (S. cerevisiae JAY 270; 0.05%, YPD, serum bottles) was −9.0% and the OD600 (S. cerevisiae JAY 270; 0.05%, YPD, serum bottles) was 3.66. For the same compound, the “Effect on yeast cell growth” value (S. cerevisiae JAY 270; 0.2%) was “reduced yeast cell growth”, the Biomass Yield (S. cerevisiae JAY 270; 0.2% (w/v), YPD, serum bottles) was 0.085 + 0.003 g/g and the “Biomass yield % change vs. control” value (S. cerevisiae JAY 270; 0.2% (w/v), YPD, serum bottles) was −15* %. The EtOH yield (S. cerevisiae JAY 270; 0.2% (w/v), YPD, serum bottles) was 0.40 ± 0.00 g/g, the “EtOH yield % change vs. control” value (S. cerevisiae JAY 270; 0.2% (w/v), YPD, serum bottles) was 6.9* % and the Glycerol yield (S. cerevisiae JAY 270; 0.2% (w/v), YPD, serum bottles) was 0.027 ± 0.000 g/g. For the same compound, the “Glycerol yield % change vs. control” value (S. cerevisiae JAY 270; 0.2% (w/v), YPD, serum bottles) was −20* %, the “Biomass yield vs. reference” value (S. cerevisiae JAY 270; 0.2%, YPD, serum bottles) was −15.3% and the “Effect on ethanol yield” value (S. cerevisiae JAY 270; 0.2%, YPD, serum bottles) was “increased the ethanol yield significantly”. For the same compound, the Ethanol yield (S. cerevisiae JAY 270; 0.2%, YPD, serum bottles) was 0.40 ± 0.00 g/g, the “Ethanol yield vs. reference” value (S. cerevisiae JAY 270; 0.2%, YPD, serum bottles) was 6.9% and the Glycerol yield (S. cerevisiae JAY 270; 0.2%, YPD, serum bottles) was 0.027 ± 0.000 g/g. The “Glycerol yield vs. reference” value (S. cerevisiae JAY 270; 0.2%, YPD, serum bottles) was −19.9%, the OD600 (S. cerevisiae JAY 270; 0.2%, YPD, serum bottles) was 3.27 and the “Biomass Yield” value (S. cerevisiae JAY 241; S. cerevisiae JAY 241) was 0.049 ± 0.000 g/g. For the same compound, the “Biomass yield % change vs. control” value (S. cerevisiae JAY 241; S. cerevisiae JAY 241) was −16* %, the “EtOH yield” value (S. cerevisiae JAY 241; S. cerevisiae JAY 241) was 0.422 ± 0.013 g/g and the “Glycerol yield” value (S. cerevisiae JAY 241; S. cerevisiae JAY 241) was 0.043 ± 0.000 g/g. For the same compound, the “Glycerol yield % change vs. control” value (S. cerevisiae JAY 241; S. cerevisiae JAY 241) was −23* %, the “DCW Δ vs. ref” value (S. cerevisiae JAY 241; S. cerevisiae JAY 241, YPD) was 88.7% and the OD600 (S. cerevisiae JAY 241; S. cerevisiae JAY 241, YPD) was 1.68. For the same compound, the “OD600 Δ vs. ref” value (S. cerevisiae JAY 241; S. cerevisiae JAY 241, YPD) was 84.0%, the “Biomass Yield” value (S. cerevisiae JAY 241; [2]) was 0.049 + 0.000 g/g and the “Biomass yield Δ vs. ref” value (S. cerevisiae JAY 241; [2]) was −15.7%. The Ethanol yield (S. cerevisiae JAY 241; [2]) was 0.422 ± 0.013 g/g, the “Ethanol yield Δ vs. ref” value (S. cerevisiae JAY 241; [2]) was 10.4% and the Glycerol yield (S. cerevisiae JAY 241; [2]) was 0.043 ± 0.000 g/g. The “Glycerol yield Δ vs. ref” value (S. cerevisiae JAY 241; [2]) was −23.39%, the “Biomass Yield” value (S. cerevisiae JAY 240; S. cerevisiae JAY 240) was 0.061 ± 0.002 g/g and the “Biomass yield % change vs. control” value (S. cerevisiae JAY 240; S. cerevisiae JAY 240) was −16* %. For the same compound, the “EtOH yield” value (S. cerevisiae JAY 240; S. cerevisiae JAY 240) was 0.446 ± 0.022 g/g, the “Glycerol yield” value (S. cerevisiae JAY 240; S. cerevisiae JAY 240) was 0.034 ± 0.001 g/g and the “Glycerol yield % change vs. control” value (S. cerevisiae JAY 240; S. cerevisiae JAY 240) was −15* %. For the same compound, the DCW (S. cerevisiae JAY 240; S. cerevisiae JAY 240, YPD) was 2.65 mg, the “DCW Δ vs. ref” value (S. cerevisiae JAY 240; S. cerevisiae JAY 240, YPD) was 86.9% and the OD600 (S. cerevisiae JAY 240; S. cerevisiae JAY 240, YPD) was 2.09. For the same compound, the “OD600 Δ vs. ref” value (S. cerevisiae JAY 240; S. cerevisiae JAY 240, YPD) was 83.9%, the “Biomass Yield” value (S. cerevisiae JAY 240; [3]) was 0.061 + 0.002 g/g and the “Biomass yield Δ vs. ref” value (S. cerevisiae JAY 240; [3]) was −15.7%. For the same compound, the Ethanol yield (S. cerevisiae JAY 240; [3]) was 0.446 ± 0.022 g/g, the “Ethanol yield Δ vs. ref” value (S. cerevisiae JAY 240; [3]) was 10.1% and the Glycerol yield (S. cerevisiae JAY 240; [3]) was 0.034 ± 0.001 g/g. The “Glycerol yield Δ vs. ref” value (S. cerevisiae JAY 240; [3]) was −14.77%, the “Biomass Yield” value (S. cerevisiae ATCC 26603; S. cerevisiae ATCC 26603) was 0.056 ± 0.003 g/g and the “Biomass yield % change vs. control” value (S. cerevisiae ATCC 26603; S. cerevisiae ATCC 26603) was −21* %. The “EtOH yield” value (S. cerevisiae ATCC 26603; S. cerevisiae ATCC 26603) was 0.467 ± 0.015 g/g, the “EtOH yield % change vs. control” value (S. cerevisiae ATCC 26603; S. cerevisiae ATCC 26603) was “+7.7* %” and the “Glycerol yield” value (S. cerevisiae ATCC 26603; S. cerevisiae ATCC 26603) was 0.064 ± 0.006 g/g. For the same compound, the “Glycerol yield % change vs. control” value (S. cerevisiae ATCC 26603; S. cerevisiae ATCC 26603) was −12* %, the DCW (S. cerevisiae ATCC 26603; S. cerevisiae ATCC 26603, YPD) was 1.53 mg and the “DCW Δ vs. ref” value (S. cerevisiae ATCC 26603; S. cerevisiae ATCC 26603, YPD) was 86.8%. The OD600 (S. cerevisiae ATCC 26603; S. cerevisiae ATCC 26603, YPD) was 1.34, the “OD600 Δ vs. ref” value (S. cerevisiae ATCC 26603; S. cerevisiae ATCC 26603, YPD) was 95.5% and the “Biomass Yield” value (S. cerevisiae ATCC 26603; [4]) was 0.056 + 0.003 g/g. The “Biomass yield Δ vs. ref” value (S. cerevisiae ATCC 26603; [4]) was −20.6%, the Ethanol yield (S. cerevisiae ATCC 26603; [4]) was 0.467 ± 0.015 g/g and the “Ethanol yield Δ vs. ref” value (S. cerevisiae ATCC 26603; [4]) was 7.7%. The Glycerol yield (S. cerevisiae ATCC 26603; [4]) was 0.064 ± 0.006 g/g, the “Glycerol yield Δ vs. ref” value (S. cerevisiae ATCC 26603; [4]) was −11.82% and the “Biomass Yield” value (S. cerevisiae JAY 238; S. cerevisiae JAY 238) was 0.058 ± 0.001 g/g. For the same compound, the “Biomass yield % change vs. control” value (S. cerevisiae JAY 238; S. cerevisiae JAY 238) was −14* %, the “EtOH yield” value (S. cerevisiae JAY 238; S. cerevisiae JAY 238) was 0.455 ± 0.016 g/g and the “EtOH yield % change vs. control” value (S. cerevisiae JAY 238; S. cerevisiae JAY 238) was “+8.3* %”. For the same compound, the “Glycerol yield” value (S. cerevisiae JAY 238; S. cerevisiae JAY 238) was 0.036 ± 0.002 g/g, the “Glycerol yield % change vs. control” value (S. cerevisiae JAY 238; S. cerevisiae JAY 238) was −8.3% and the DCW (S. cerevisiae JAY 238; S. cerevisiae JAY 238, YPD) was 2.35 mg. The “DCW Δ vs. ref” value (S. cerevisiae JAY 238; S. cerevisiae JAY 238, YPD) was 83.9%, the OD600 (S. cerevisiae JAY 238; S. cerevisiae JAY 238, YPD) was 1.99 and the “OD600 Δ vs. ref” value (S. cerevisiae JAY 238; S. cerevisiae JAY 238, YPD) was 85.0%. For the same compound, the “Biomass Yield” value (S. cerevisiae JAY 238; [5]) was 0.058 + 0.001 g/g, the “Biomass yield Δ vs. ref” value (S. cerevisiae JAY 238; [5]) was −13.9% and the Ethanol yield (S. cerevisiae JAY 238; [5]) was 0.455 ± 0.016 g/g. The “Ethanol yield Δ vs. ref” value (S. cerevisiae JAY 238; [5]) was 8.3%, the Glycerol yield (S. cerevisiae JAY 238; [5]) was 0.036 ± 0.002 g/g and the “Glycerol yield Δ vs. ref” value (S. cerevisiae JAY 238; [5]) was −8.30%.
